US7439017B2, “Assays for measuring nucleic acid binding proteins and enzyme activities” (BioVeris Corporation, priority 1998, dated 2008)

Test system: DNA substrate containing the NFkβ consensus sequence
Assay: DNase protection assay for DNA-protein interactions (ECL)
Assay type: binding
Description: This example illustrates the use of the invention to measure protein-DNA interactions, specifically, the binding of the transcription factor NFkβ with its consensus DNA sequence. A schematic depicting the assay format can be found in the detailed description of the invention. DNAse 1 and NFkβ were purchased from Promega Corp. A DNA substrate containing a consensus DNA sequence for NFk was prepared by Midland Certified Reagent Co. by solid phase synthesis. The sequence of the substrate is shown below. The nucleotides shown in brackets were linked by phosphorothioate linkages; the other linkages were standard phosphodiester bonds. […]
The labeled DNA substrate (50 fmol), poly dI-dC (1 ug, to reduce non-specific protein-DNA interactions) and varying amounts of recombinant NFkβ (p50 subunit) were combined in a 20 uL volume and incubated for 30 min. at room temperature. […] The reaction mixture was introduced into an ORIGEN Analyzer (IGEN International) running in Magnetic Capture Mode and the ECL signal from RuBpy on the magnetic beads was determined in the presence of a solution containing tripropylamine (ORIGEN Assay Buffer, IGEN International). […]
The specificity of the assay was determined by replacing the specific binding protein NFkβ with other DNA binding proteins specific for sequences not present on the DNA substrate (the phosphorothioate containing substrate was used).

Substance: AP-2: DNA binding protein specific for sequences not present on the DNA substrate
- nuclease protection of the DNA substrate containing the NFkβ consensus sequence (in words): no ability to protect against nuclease attack
- ECL Signal (specificity test, DNase added, phosphorothioate containing NFkβ consensus substrate): 32289
